Assay results: patent US20250235496A1, “USE OF BELLIDIFOLIN (BEL) AND/OR BEL-CONTAINING EXTRACT IN PREPARATION OF ANTIDEPRESSANT PRODUCT” (priority 2024, published 2025)

Assay: Mass spectrometry imaging of mouse brain
Assay type: in vivo, mice
Conditions: 10, 20 and 40 mg/kg, 21 d

In the case of COc1cc(O)c2c(=O)c3c(O)ccc(O)c3oc2c1 [BEL, bellidifolin], the “BEL signal in brain (mass spectrometry imaging), passage of BBB” value was “BEL signals were detected”.
